Results from paper PMC2009384, “The carcinogenicity of polycyclic hydrocarbon epoxides in newborn mice” (British Journal of Cancer, 1975).

What was measured:
[1] = tested on: newborn Swiss mice; assay: Experiment I: carcinogenicity in newborn mice, benz(a)anthracene vs its K region epoxide (s.c. injection, tumour incidence to 70-75 weeks)
Source text: Br. J. Cancer (1975) 31, 182 THE CARCINOGENICITY OF POLYCYCLIC HYDROCARBON EPOXIDES IN NEWBORN MICE P. L. GROVER, P. SIMS, B. C. V. MITCHLEY AND F. J. C. ROE From the Chester Beatty Research Institute, Institute of Cancer Research, Royal Cancer Hospital, Fulham Road, London, SW3 6JB Received 9 August 1974. […] THE HYPOTHESIS that the carcino- genicity of polycyclic hydrocarbons is associated with the formation of epoxide metabolites (Grover, Hewer and Sims, 1971, 1972; Keysell et al., 1973) is sup- ported by some experimental evidence but remains unproven. […] The epoxides can also act as alkylating agents (Grover and Sims, 1970) and as mutagens (Ames, Sims and Grover, 1972; Huberman et al., 1971; Cookson, Sims and Grover, 1971; Fahmy and Fahmy, 1973). […] The newborn mouse, which is susceptible to carcinogenic polycyclic hydrocarbons (Roe, Rowson and Salaman, 1961; Roe, Mitchley and Walters, 1963; Walters and Roe, 1964, 1966) can be considered as a convenient source of several types of rapidly dividing cells. Consequently we have tested the K region epoxides derived from phenanthrene, benz(a)anthracene, 7-methylbenz(a)anthracene, dibenz(a,h)- anthracene, chrysene and 3-methylchol- anthrene, together with some of the CARCINOGENICITY OF POLYCYCLIC HYDROCARBON EPOXIDES IN MICE 183 parent hydrocarbons, for carcinogenicity using newborn mice. This paper presents the results that were obtained in these experiments. MATERIALS AND METHODS The polycyclic hydrocarbon epoxides, phenanthrene 9,10-oxide, benz(a)anthracene 5,6-oxide, 7-methylbenz(a)anthracene 5,6- oxide, dibenz(a,h)anthracene 5,6-oxide, chry- sene 5,6-oxide and 3-methylcholanthrene 11,12-oxide were prepared from the parent hydrocarbons (Newman and Blum, 1964; Boyland and Sims, 1965; Sims 1966). Two experiments were undertaken fol- lowing similar protocols. For each experi- ment Swiss mice from a specific pathogen- free colony were time mated so as to produce a large number of litters over the course of 2 or 3 days. […] Test compounds were suspended in poly- ethylene glycol (PEG) 400 and injections of 0-02 ml of the suspension were given by introducing a 25 gauge hypodermic needle through the skin near the root of the tail and threading it subcutaneously to deliver the injected material in the interscapular region. Injections were given to every mouse on the first day or first 3 days of life. The details of treatments and numbers of mice of each sex in each group are shown in Table I (Experiment I) and Table II (Ex- periment II). Surviving mice were weaned when they w ere 21 days old. Thereafter, males and females w ere separated and housed 6 per cage in metal boxes. A mixture of sawdust and wood shavings was used as bedding. The mice were fed on a standard cubed diet (Formulation 86 from C. Holdman and Sons (Plow co Feeds), Byers Lane, South Godstone, Surrey) and water was given ad libitum. Mice were inspected daily, and at weekly intervals they were weighed and palpated for tumours and other lesions. […] The experiment was terminated when surviving mice were between 70 and 75 weeks old. A full routine post- mortem examination, which included disten- sion of the urinary bladder with fixative, was carried out. The number of lesions thought to be neoplasms and the size of the largest such lesion in each organ affected were recorded. All tissues with suspected neoplasms were fixed in Bouin's solution. Haematoxylin and eosin stained 5 µm paraffin wax sections were prepared and examined microscopically. RESULTS The results of the two experiments in terms of tumour incidence are sum- marized in […].

[2] = tested on: newborn mice; conditions: ref Roe and Walters, 1967; cited from earlier work
[3] = Groups A, B and C, 3 x 200, 100, 50 µg s.c.
[4] = females, 50 µg per treatment s.c. on Days 0, 1 and 2
[5] = females, 50 µg per treatment s.c. on Days 0, 1 and 2 in PEG 400
[6] = females, 100 µg per treatment s.c. on Days 0, 1 and 2
[7] = females, 100 µg per treatment s.c. on Days 0, 1 and 2 in PEG 400
[8] = females, 200 µg per treatment s.c. on Days 0, 1 and 2
[9] = females, 200 µg per treatment s.c. on Days 0, 1 and 2 in PEG 400
[10] = males, 50 µg per treatment s.c. on Days 0, 1 and 2
[11] = males, 50 µg per treatment s.c. on Days 0, 1 and 2 in PEG 400
[12] = males, 100 µg per treatment s.c. on Days 0, 1 and 2
[13] = males, 100 µg per treatment s.c. on Days 0, 1 and 2 in PEG 400
[14] = males, 200 µg per treatment s.c. on Days 0, 1 and 2
[15] = males, 200 µg per treatment s.c. on Days 0, 1 and 2 in PEG 400

For `c1ccc2cc3c(ccc4ccccc43)cc2c1` [Benz(a)anthracene, reference compound], the “effect on the incidence of liver tumours in male mice” value [1, 3] was “dose related effect”, the “effect on the incidence of lung tumours in mice of both sexes” value [1, 3] was “dose related effect” and the “No. of mice examined at p.m. at termination of experiment (70th-75th week) with liver tumours” value [1, 4] was 2. For the same compound, the “No. of mice examined at p.m. at termination of experiment (70th-75th week) with lung tumours” value [1, 4] was 7, the “No. of mice examined at p.m. at termination of experiment (70th-75th week) with multiple liver tumours” value [1, 4] was 1 and the “No. of mice examined at p.m. at termination of experiment (70th-75th week) with multiple lung tumours” value [1, 4] was 3. The “No. of mice examined at p.m. at termination of experiment (70th-75th week) with other tumours” value [1, 4] was 0, the “No. of mice examined at p.m. from 50th-70th week with liver tumours” value [1, 4] was 0 and the “No. of mice examined at p.m. from 50th-70th week with lung tumours” value [1, 4] was 1. The “No. of mice examined at p.m. from 50th-70th week with other tumours” value [1, 4] was 0, the “No. of survivors at 50 weeks” value [1, 5] was 25 and the “No. of survivors at 70 weeks” value [1, 5] was 21. For the same compound, the “No. of mice examined at p.m. at termination of experiment (70th-75th week) with liver tumours” value [1, 6] was 0, the “No. of mice examined at p.m. at termination of experiment (70th-75th week) with lung tumours” value [1, 6] was 5 and the “No. of mice examined at p.m. at termination of experiment (70th-75th week) with multiple liver tumours” value [1, 6] was 0. The “No. of mice examined at p.m. at termination of experiment (70th-75th week) with multiple lung tumours” value [1, 6] was 2, the “No. of mice examined at p.m. at termination of experiment (70th-75th week) with other tumours” value [1, 6] was 0 and the “No. of mice examined at p.m. from 50th-70th week with liver tumours” value [1, 6] was 0. For the same compound, the “No. of mice examined at p.m. from 50th-70th week with lung tumours” value [1, 6] was 2, the “No. of mice examined at p.m. from 50th-70th week with other tumours” value [1, 6] was 0 and the “No. of survivors at 50 weeks” value [1, 7] was 17. The “No. of survivors at 70 weeks” value [1, 7] was 13, the “No. of mice examined at p.m. at termination of experiment (70th-75th week) with liver tumours” value [1, 8] was 2 and the “No. of mice examined at p.m. at termination of experiment (70th-75th week) with lung tumours” value [1, 8] was 10. The “No. of mice examined at p.m. at termination of experiment (70th-75th week) with multiple liver tumours” value [1, 8] was 1, the “No. of mice examined at p.m. at termination of experiment (70th-75th week) with multiple lung tumours” value [1, 8] was 10 and the “No. of mice examined at p.m. at termination of experiment (70th-75th week) with other tumours” value [1, 8] was 1. For the same compound, the “No. of mice examined at p.m. from 50th-70th week with liver tumours” value [1, 8] was 0, the “No. of mice examined at p.m. from 50th-70th week with lung tumours” value [1, 8] was 0 and the “No. of mice examined at p.m. from 50th-70th week with other tumours” value [1, 8] was 0. The “No. of survivors at 50 weeks” value [1, 9] was 18, the “No. of survivors at 70 weeks” value [1, 9] was 18 and the “No. of mice examined at p.m. at termination of experiment (70th-75th week) with liver tumours” value [1, 10] was 9. The “No. of mice examined at p.m. at termination of experiment (70th-75th week) with lung tumours” value [1, 10] was 5, the “No. of mice examined at p.m. at termination of experiment (70th-75th week) with multiple liver tumours” value [1, 10] was 5 and the “No. of mice examined at p.m. at termination of experiment (70th-75th week) with multiple lung tumours” value [1, 10] was 2. The “No. of mice examined at p.m. at termination of experiment (70th-75th week) with other tumours” value [1, 10] was 0, the “No. of mice examined at p.m. from 50th-70th week with liver tumours” value [1, 10] was 3 and the “No. of mice examined at p.m. from 50th-70th week with lung tumours” value [1, 10] was 1. For the same compound, the “No. of mice examined at p.m. from 50th-70th week with other tumours” value [1, 10] was 0, the “No. of survivors at 50 weeks” value [1, 11] was 29 and the “No. of survivors at 70 weeks” value [1, 11] was 25. For the same compound, the “No. of mice examined at p.m. at termination of experiment (70th-75th week) with liver tumours” value [1, 12] was 15, the “No. of mice examined at p.m. at termination of experiment (70th-75th week) with lung tumours” value [1, 12] was 5 and the “No. of mice examined at p.m. at termination of experiment (70th-75th week) with multiple liver tumours” value [1, 12] was 11. The “No. of mice examined at p.m. at termination of experiment (70th-75th week) with multiple lung tumours” value [1, 12] was 3, the “No. of mice examined at p.m. at termination of experiment (70th-75th week) with other tumours” value [1, 12] was 1 and the “No. of mice examined at p.m. from 50th-70th week with liver tumours” value [1, 12] was 4. For the same compound, the “No. of mice examined at p.m. from 50th-70th week with lung tumours” value [1, 12] was 1, the “No. of mice examined at p.m. from 50th-70th week with other tumours” value [1, 12] was 0 and the “No. of survivors at 50 weeks” value [1, 13] was 25. The “No. of survivors at 70 weeks” value [1, 13] was 19, the “No. of mice examined at p.m. at termination of experiment (70th-75th week) with liver tumours” value [1, 14] was 15 and the “No. of mice examined at p.m. at termination of experiment (70th-75th week) with lung tumours” value [1, 14] was 4. The “No. of mice examined at p.m. at termination of experiment (70th-75th week) with multiple liver tumours” value [1, 14] was 15, the “No. of mice examined at p.m. at termination of experiment (70th-75th week) with multiple lung tumours” value [1, 14] was 4 and the “No. of mice examined at p.m. at termination of experiment (70th-75th week) with other tumours” value [1, 14] was 0. For the same compound, the “No. of mice examined at p.m. from 50th-70th week with liver tumours” value [1, 14] was 1, the “No. of mice examined at p.m. from 50th-70th week with lung tumours” value [1, 14] was 1 and the “No. of mice examined at p.m. from 50th-70th week with other tumours” value [1, 14] was 0. The “No. of survivors at 50 weeks” value [1, 15] was 18 and the “No. of survivors at 70 weeks” value [1, 15] was 15.

In the case of `c1ccc2c(c1)ccc1ccccc12` [phenanthrene], the “activity in newborn mice” value [2] is given as “inactive”.
